From patent US12161722B2, “Bifunctional heterocyclic compound having BTK degradation function via ubiquitin proteasome pathway, and use thereof” (KOREA RESEARCH INSTITUTE OF CHEMICAL TECHNOLOGY, priority 2021, dated 2024) come the findings set out here.

One assay has as its target T1, WT BTK protein (Homo sapiens, UniProt Q06187).
T1 construct: measured for intracellular BTK protein levels by Western blotting; endogenous in cells; host or cells: TMD-8 or RAMOS cells
Nature of the assay: BTK protein degradation assay (Western blotting), WT BTK. It is filed as cell-based. As to conditions: concentration range accounting for 50% degradation of WT BTK protein, TMD-8 or RAMOS cells, 24 hours. The method in brief:
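BTK levels were read by Western blotting (GAPDH and β-actin normalisers) in RIPA lysates of TMD-8 cells exposed to compounds for 24 h at 1×10^6 cells/mL. Results scored in ranges of the concentration producing 50% loss of WT BTK.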
For orientation: A western blot detects proteins with antibodies after separation by electrophoresis.

Another assay concerns the target T2, C481S BTK protein (Homo sapiens, UniProt Q06187, C481S).
T2 construct: expressed in transfected cells; host or cells: 293T BTK MUT (C481S) cells
Nature of the assay: BTK protein degradation assay (Western blotting), C481S BTK. It is filed as cell-based. The following applies: concentration range accounting for 50% degradation of C481S BTK protein, 293T BTK MUT (C481S) cells. On the procedure: TMD-8, RAMOS, or 293T BTK MUT (C481S) cells were treated with the synthesized compounds and measured for intracellular BTK protein levels by Western blotting. The protocol of the experiment using TMD-8 cells is as follows.
The 12-well plates were treated as follows. A 10 mM stock was 1/10 diluted in series with DMSO ([…]) to form final concentrations of 10, 1, 0.1, 0.01, 0.001, and 0.0001 mM. The compounds with such concentrations were applied to cells, followed by harvesting the cells 24 hours later. For a negative control, a 1/10 dilution of DMSO in the medium (3 mL DMSO+27 mL medium) was used.
The 1-mL cell culture in each well was passed many times through a pipette and then transferred into a 1.5-mL microtube before centrifugation (500 g, 5 min, 4° C.). The supernatant was discarded and the cell pellet was washed with PBS. After centrifugation (500 g, 5 min, 4° C.) again, the supernatant was discarded and the cell pellet was taken.
A lysis buffer was prepared as follows. RIPA buffer (Biosesang, RC2038-050-00)+0.5 mM PMSF (SIGMA, P7626)+1×Protease/Phosphatase Inhibitor (Cell signaling, 5872S) was added in an amount […] per well and left for 30 minutes on ice (vortexing at 0 and 30 minutes) before sonication (5 cycles of pulse for 10 seconds and rest for 30 seconds, 70% amplification). The supernatant obtained by centrifugation (15000 g, 15 min, 4° C.) was transferred into a new microtube. Cells in each well of 96-well plates were 1/2 diluted with the RIPA buffer and incubated at 37° C. for 30 minutes with […] of a 50:1 mixture of BCA reagents A and B in BCA Protein Assay Kit (iNtRON, 21071). After being cooled for 10 minutes, the 96-well plates were measured for absorbance at 562 nm on the BioTek, SYNERGY H1 microplate reader. Samples were prepared by protein quantification based on the absorbance measurements and then boiled at 70° C. for 10 minutes. The sample buffer used in the case was prepared by mixing a NuPAGE or a Bolt 4× sample buffer (Invitrogen) and its 10× sample reducing agent depending on the gel to be used, and protein dilution was made in a RIPI buffer.
The samples were loaded in the same amount into a NuPAGE or Bolt Bis-tris 4-12% gradient gel and allowed to run therein (200 V, 35 minutes). The separated proteins were transferred onto a […] NC membrane, using Trans-blot Turbo (BIO-RAD) (1.3 A constant, 25V limit, 15 minutes). The membrane was blocked at room temperature for 1 hour with skim milk or Intercept Blocking Buffer (LI-COR, 927-60001):0.1% TBST=1:1. The membrane was incubated with Anti BTK Rabbit (1:1,000 in 5% skim milk/0.2% TBST, size: 77 kDa, Cell signaling Technology) at 4° C. overnight O/N or at room temperature for 2 hours and with Anti GAPDH Rabbit (1:10,000 in 5% BSA/0.2% TBST, size: 36 kDa, GENETEX) and Anti β-actin mouse (1:10,000 in 5% BSA/0.2% TBST, RT, size: 43 kDa, GENETEX) at room temperature for 1 or 3 hours. Then, the membrane was washed three times with 0.5% TBST for 5 minutes each time before incubation with the second antibody Anti-Rabbit IgG (1:5,000 in 5% Skim milk/TBST, CST), IRDye® 800CW Goat anti-Rabbit IgG Secondary Antibody (1:10,000 in 5% skim/TBST, RT 45 min), or IRDye® 680RD Goat anti-Mouse IgG Secondary Antibody (1:10,000 in 5% skim/TBST, RT 45 min) for 45 minutes at room temperature in a rocker. The membrane was washed five times with 0.5% TBST for 5 minutes in each time, followed by detection with LI-COR, Odyssey. In this regard, the detection proceeded, as it was, for house-keeping genes while using SuperSignal West Pico PLUS Chemiluminescent Substrate or SuperSignal West femto Maximum Sensitivity Substrate for BTK detection.
According to the concentration ranges of compounds accounting for 50% degradation of WT BTK protein and C481S BTK protein, the activities are expressed as +++(0.0001-0.01 μM), ++(0.01-1 μM), +(1-10 μM), −(>10 μM), and NT (not tested). […]

T2 sequence (Q06187 whole entry C481S): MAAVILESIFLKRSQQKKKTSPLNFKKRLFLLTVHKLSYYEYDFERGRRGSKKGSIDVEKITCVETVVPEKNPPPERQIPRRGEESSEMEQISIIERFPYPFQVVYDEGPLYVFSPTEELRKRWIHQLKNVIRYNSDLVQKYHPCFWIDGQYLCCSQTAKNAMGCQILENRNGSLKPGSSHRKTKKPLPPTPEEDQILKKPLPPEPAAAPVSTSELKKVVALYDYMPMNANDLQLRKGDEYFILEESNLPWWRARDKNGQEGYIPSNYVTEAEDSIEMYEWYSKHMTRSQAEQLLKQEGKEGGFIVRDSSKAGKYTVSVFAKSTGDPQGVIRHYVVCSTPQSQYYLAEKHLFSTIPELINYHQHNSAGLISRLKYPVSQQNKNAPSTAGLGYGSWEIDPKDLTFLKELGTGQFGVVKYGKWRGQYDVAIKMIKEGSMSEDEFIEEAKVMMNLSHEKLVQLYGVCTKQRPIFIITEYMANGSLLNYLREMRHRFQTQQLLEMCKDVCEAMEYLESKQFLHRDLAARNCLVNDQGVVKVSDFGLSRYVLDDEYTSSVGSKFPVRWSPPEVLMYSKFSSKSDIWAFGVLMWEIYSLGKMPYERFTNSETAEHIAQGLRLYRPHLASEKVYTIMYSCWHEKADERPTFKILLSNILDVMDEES
T1 sequence (Q06187 whole entry): as the sequence (Q06187 whole entry C481S) above, with S481C counted along it

One may read the DC50 as the concentration at which degradation of the target reaches its halfway point. With `Cc1cccc(C)c1Nc1nn(C)c2nc(Nc3ccc4c(c3)CN(C(=O)COCCOCCOCCOCCNc3cccc5c3C(=O)N(C3CCC(=O)NC3=O)C5=O)CC4)ncc12` (stereo not drawn) [Compound 13], the DC50 is 0.1 to 10 nM on WT BTK protein and 1000 to 10000 nM on C481S BTK protein.
On the same counts, the results for `Cc1cccc(C)c1Nc1nn(C)c2nc(Nc3ccc4c(c3)CN(C(=O)COCCOCCOCCOCCNc3ccc5c(c3)C(=O)N(C3CCC(=O)NC3=O)C5=O)CC4)ncc12` (stereo not drawn) [Compound 8, 5-((14-(7-((3-((2,6-Dimethylphenyl)amino)-1-methyl-1H-pyrazolo[3,4-d]pyrimidin-6-yl)amino)-3,4-dihydroisoquinolin-2 (1H)-yl)-14-oxo-3,6,9,12-tetraoxatetradecyl)amino)-2-(2,6-dioxopiperidin-3-yl)isoindoline-1,3-dione] are 0.1 to 10 nM and 10 to 1000 nM.
With `Cc1cccc(Cl)c1Nc1nn(C)c2nc(Nc3ccc4c(c3)CN(CC3CCN(c5ccc6c(c5)C(=O)N(C5CCC(=O)NC5=O)C6=O)CC3)CC4)ncc12` (stereo not drawn) [Compound 85, 5-(4-((7-((3-((2-Chloro-6-methylphenyl)amino)-1-methyl-1H-pyrazolo[3,4-d]pyrimidin-6-yl)amino)-3,4-dihydroisoquinolin-2 (1H)-yl)methyl)piperidin-1-yl)-2-(2,6-dioxopiperidin-3-yl)isoindoline-1,3-dione], the DC50 at WT BTK protein and at C481S BTK protein was 0.1 to 10 nM each time.
In the case of `COCCOc1cc(C)c(Nc2nn(C)c3nc(Nc4ccc5c(c4)C(C)(C)N(C(=O)CCC(=O)Nc4ccc(OCCOCCOCCOCCNc6cccc7c6C(=O)N(C6CCC(=O)NC6=O)C7=O)cc4)CC5)ncc23)c(C)c1` (stereo not drawn) [Compound 6, N-(4-(2-(2-(2-(2-((2-(2,6-Dioxopiperidin-3-yl)-1,3-dioxoisoindolin-4-yl)amino)ethoxy)ethoxy)ethoxy)ethoxy)phenyl)-4-(7-((3-((4-(2-methoxyethoxy)-2,6-dimethylphenyl)amino)-1-methyl-1H-pyrazolo[3,4-d]pyrimidin-6-yl)amino)-1,1-dimethyl-3,4-dihydroisoquinolin-2 (1H)-yl)-4-oxobutanamide], the half-maximal degradation concentration (DC50) at WT BTK protein and on C481S BTK protein was 10 to 1000 nM throughout.
With `Cc1cccc(C)c1Nc1nn(C)c2nc(Nc3ccc4c(c3)CN(CC3CCN(C(=O)C5CCN(c6ccc7c(=O)n(C8CCC(=O)NC8=O)nnc7c6)CC5)CC3)CC4)ncc12` (stereo not drawn) [Compound 61, 3-(7-(4-(4-((7-((3-((2,6-Dimethylphenyl)amino)-1-methyl-1H-pyrazolo[3,4-d]pyrimidin-6-yl)amino)-3,4-dihydroisoquinolin-2 (1H)-yl)methyl)piperidine-1-carbonyl)piperidin-1-yl)-4-oxobenzo[d][1,2,3]triazin-3 (4H)-yl)piperidin-2,6-one], the DC50 on WT BTK protein and on C481S BTK protein was 0.1 to 10 nM in each case.
In the case of `Cc1cccc(C)c1Nc1nn(C)c2nc(Nc3ccc4c(c3)CN(C(=O)C3CCN(C(=O)C5CCN(c6ccc7c(=O)n(C8CCC(=O)NC8=O)nnc7c6)CC5)CC3)CC4)ncc12` (stereo not drawn) [Compound 60, 3-(7-(4-(4-(7-((3-((2,6-Dimethylphenyl)amino)-1-methyl-1H-pyrazolo[3,4-d]pyrimidin-6-yl)amino)-1,2,3,4-tetrahydroisoquinoline-2-carbonyl)piperidine-1-carbonyl)piperidin-1-yl)-4-oxobenzo[d][1,2,3]triazin-3 (4H)-yl)piperidin-2,6-one], the half-maximal degradation concentration (DC50) at WT BTK protein fell in the range of 0.1 to 10 nM; at C481S BTK protein it was 10 to 1000 nM.
For `Cc1cccc(C)c1Nc1nn(C)c2nc(Nc3ccc4c(c3)CN(C(=O)CCCCCNc3cccc5c3C(=O)N(C3CCC(=O)NC3=O)C5=O)CC4)ncc12` (stereo not drawn) [Compound 1, 4-((6-(7-((3-((2,6-Dimethylphenyl)amino)-1-methyl-1H-pyrazolo[3,4-d]pyrimidin-6-yl)amino)-3,4-dihydroisoquinolin-2 (1H)-yl)-6-oxohexyl)amino)-2-(2,6-dioxopiperidin-3-yl)isoindoline-1,3-dione], in that order: 10 to 1000 nM and over 10000 nM.
On the same counts, the results for `Cc1cccc(C)c1Nc1nn(C)c2nc(Nc3ccc4c(c3)CN(CCOCCNC(=O)CN3CCN(c5ccc6c(c5)C(=O)N(C5CCC(=O)NC5=O)C6=O)CC3)CC4)ncc12` (stereo not drawn) [Compound 20, N-(2-(2-(7-((3-((2,6-Dimethylphenyl)amino)-1-methyl-1H-pyrazolo[3,4-d]pyrimidin-6-yl)amino)-3,4-dihydroisoquinolin-2 (1H)-yl)ethoxy)ethyl)-2-(4-(2-(2,6-dioxopiperidin-3-yl)-1,3-dioxoisoindolin-5-yl)piperazin-1-yl)acetamide] are 0.1 to 10 nM and 1000 to 10000 nM.
For `Cc1cccc(C)c1Nc1nn(C)c2nc(Nc3ccc4c(c3)CN(C(=O)CCOCCOCCOCCOCCNC(=O)CN3CCN(c5ccc6c(c5)C(=O)N(C5CCC(=O)NC5=O)C6=O)CC3)CC4)ncc12` (stereo not drawn) [Compound 18], in that order: 0.1 to 10 nM and over 10000 nM.
`Cc1cccc(C)c1Nc1nn(C)c2nc(Nc3ccc4c(c3)CN(C(=O)COCCOCCOCCOCCNC(=O)C3CCN(c5cccc6c5C(=O)N(C5CCC(=O)NC5=O)C6=O)CC3)CC4)ncc12` (stereo not drawn) [Compound 5, N-(14-(7-((3-((2,6-Dimethylphenyl)amino)-1-methyl-1H-pyrazolo[3,4-d]pyrimidin-6-yl)amino)-3,4-dihydroisoquinolin-2 (1H)-yl)-14-oxo-3,6,9,12-tetraoxatetradecyl)-1-(2-(2,6-dioxopiperidin-3-yl)-1,3-dioxoisoindolin-4-yl)piperidine-4-carboxamide]: the DC50 on WT BTK protein and on C481S BTK protein was 10 to 1000 nM in each case.
Take `Cc1cccc(C)c1Nc1nn(C)c2nc(Nc3ccc4c(c3)CN(Cc3cn(CCOCCOCCNC(=O)CNc5ccc6c(c5)C(=O)N(C5CCC(=O)NC5=O)C6=O)nn3)CC4)ncc12` (stereo not drawn) [Compound 12, N-(2-(2-(2-(4-((7-((3-((2,6-Dimethylphenyl)amino)-1-methyl-1H-pyrazolo[3,4-d]pyrimidin-6-yl)amino)-3,4-dihydroisoquinolin-2 (1H)-yl)methyl)-1H-1,2,3-triazol-1-yl)ethoxy)ethoxy)ethyl)-2-((2-(2,6-dioxopiperidin-3-yl)-1,3-dioxoisoindolin-5-yl)amino)acetamide]: the 50% degradation concentration (DC50) was 10 to 1000 nM on WT BTK protein and over 10000 nM at C481S BTK protein.
For `Cc1cccc(C)c1Nc1nn(C)c2nc(Nc3ccc4c(c3)CN(CC3CCN(C(=O)CN5CCN(c6ccc7c(c6)C(=O)N(C6CCC(=O)NC6=O)C7=O)CC5)CC3)CC4)ncc12` (stereo not drawn) [Compound 31, 5-(4-(2-(4-((7-((3-((2,6-Dimethylphenyl)amino)-1-methyl-1H-pyrazolo[3,4-d]pyrimidin-6-yl)amino)-3,4-dihydroisoquinolin-2 (1H)-yl)methyl)piperidin-1-yl)-2-oxoethyl)piperazin-1-yl)-2-(2,6-dioxopiperidin-3-yl)isoindoline-1,3-dione], in that order: 0.1 to 10 nM and 10 to 1000 nM.
